This is an account of results in patent US20240116985A1, “STAPLED PEPTIDES AND METHODS THEREOF” (priority 2020, published 2024).

≈ marks a conversion by molar mass, not a printed value. Where two headings read alike, the source gives them in different places.

For data set [1], the target named is T1, full-length beta-Catenin (Uniprot ID P35222) (Homo sapiens, UniProt P35222).
T1 construct: 10 nM full-length beta-Catenin (Uniprot ID P35222)
T1 sequence (P35222 1-781): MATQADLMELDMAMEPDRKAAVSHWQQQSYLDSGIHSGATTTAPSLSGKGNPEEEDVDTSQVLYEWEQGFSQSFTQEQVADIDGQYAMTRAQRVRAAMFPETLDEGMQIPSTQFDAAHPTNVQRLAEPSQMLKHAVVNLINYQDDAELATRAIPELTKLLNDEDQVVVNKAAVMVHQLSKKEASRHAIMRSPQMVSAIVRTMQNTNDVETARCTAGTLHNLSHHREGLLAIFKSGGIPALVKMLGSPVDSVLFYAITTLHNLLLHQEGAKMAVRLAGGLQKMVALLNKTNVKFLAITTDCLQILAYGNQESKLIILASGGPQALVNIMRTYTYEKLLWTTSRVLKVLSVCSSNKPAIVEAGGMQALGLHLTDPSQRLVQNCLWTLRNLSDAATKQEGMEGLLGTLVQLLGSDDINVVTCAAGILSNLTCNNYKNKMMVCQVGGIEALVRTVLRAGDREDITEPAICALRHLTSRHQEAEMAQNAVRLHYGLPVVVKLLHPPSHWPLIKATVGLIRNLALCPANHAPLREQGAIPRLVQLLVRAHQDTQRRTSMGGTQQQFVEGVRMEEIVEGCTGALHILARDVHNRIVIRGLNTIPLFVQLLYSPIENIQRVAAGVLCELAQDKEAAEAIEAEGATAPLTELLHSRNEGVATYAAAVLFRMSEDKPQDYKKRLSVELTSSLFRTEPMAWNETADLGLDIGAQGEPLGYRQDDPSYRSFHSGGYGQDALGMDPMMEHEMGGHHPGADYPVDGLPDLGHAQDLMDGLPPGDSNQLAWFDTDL
Description: Fluorescence polarization IC50 (beta-catenin / 5FAM-TCF4 10-53 competition). The class given is binding. For orientation: Fluorescence polarisation rises when a labelled molecule tumbles more slowly, as on binding a larger partner.

A further data set in a line: CHI Log D procedure. The class given is physicochemical. Conditions: for chromatographic logD: pH 7.4, CHI Log D; for CHI Log D: pH 7.4.
The next data set can be described thus: Solubility in PBS. The class given is physicochemical. The essentials: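 Read-out is the HPLC peak area of the supernatant from ultracentrifuged PBS solution, scaled against a 50 μM peptide DMSO injection; value reported as [(PBS area)/(DMSO area)]*50 uM.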
The mark [2] stands for this setting: Table E2-1, read-out: beta-Catenin FP IC50.
[3] abbreviates: fluorescence polarization, beta-catenin, read-out: FP EC50.

A word on the chromatographic logD: it is lipophilicity estimated from chromatographic retention. Broadly, the Solubility is the concentration that dissolves in the medium under given conditions. A low value points to little dissolved substance. As to `CC(=O)N1CCC[C@]12CC=CCCCC1(CCCC=CCCCCCC[C@@](C)(C(=O)N[C@@H](Cc3cccc(F)c3)C(=O)N[C@@H](Cc3csc4ccccc34)C(=O)N[C@@H](CCC(N)=O)C(N)=O)NC(=O)[C@H](C)NC(=O)[C@H](Cc3ccccc3)NC(=O)[C@H](C)NC(=O)[C@H](C)NC(=O)[C@H](CCC(=O)O)NC(=O)[C@H](CC(=O)O)NC1=O)NC(=O)[C@H](C)NC(=O)[C@H](CC(=O)O)NC2=O` (stereo partly drawn) [I-372, Ac-PL3-Asp-Ala-B5-Asp-Glu-Ala-Ala-Phe-Ala-S8-3FF-BztA-Gln-NH2], the IC50 in data set [1] (setting [2]) came to 2.09 µM. Further, the chromatographic logD in the data set “CHI Log D procedure” amounted to 2.17. Further, in the data set “Solubility in PBS” (Solubility (uM)), the Solubility stood at 44 µM (≈ 79.3 µg/mL).

Consider `CC(=O)N1CCC[C@]12CC=CCCCC1(CCCC=CCCCCCC[C@@](C)(C(=O)N[C@@H](Cc3ccccc3)C(=O)N[C@@H](Cc3csc4ccccc34)C(=O)N[C@@H](CCC(N)=O)C(N)=O)NC(=O)[C@H](C(C)C)NC(=O)[C@H](Cc3cccc(C(F)(F)F)c3)NC(=O)[C@H](C)NC(=O)[C@H](C)NC(=O)[C@H](CC(=O)O)NC(=O)[C@H](CC(=O)O)NC1=O)NC(=O)[C@H](C)NC(=O)[C@H](CC(=O)O)NC2=O` (stereo partly drawn) [I-373, Ac-PL3-Asp-Ala-B5-Asp-Asp-Ala-Ala-3F3MeF-Val-S8-Phe-BztA-Gln-NH2], for which the IC50 in data set [1] (setting [2]) is 0.945 µM. The compound also displayed a chromatographic logD in the data set “CHI Log D procedure” of 2.3. This compound came in with a Solubility in the data set “Solubility in PBS” (Solubility (uM)) of 26 µM (≈ 48.5 µg/mL).

`CC(=O)N1CCC[C@]12CC=CCCCC1(CCCC=CCCCCCC[C@@](C)(C(=O)N[C@@H](Cc3ccccc3)C(=O)N[C@@H](Cc3csc4ccccc34)C(=O)N[C@@H](CCC(N)=O)C(N)=O)NC(=O)[C@H](C)NC(=O)[C@H](Cc3cccc(C(F)(F)F)c3)NC(=O)[C@H](C)NC(=O)[C@H](C)NC(=O)[C@H](CC(=O)O)NC(=O)[C@H](CC(=O)O)NC1=O)NC(=O)[C@H](C)NC(=O)[C@H](CC(=O)O)NC2=O` (stereo partly drawn) [I-374, Ac-PL3-Asp-Ala-B5-Asp-Asp-Ala-Ala-3F3MeF-Ala-S8-Phe-BztA-Gln-NH2]: the IC50 in data set [1] (setting [2]) and in data set [1] (setting [3]) was 3.01 µM in each case. The “CHI Log D” value in “CHI Log D procedure” was 2.242. In addition, the “Solubility” value in the data set “Solubility in PBS” worked out at 49 µM (≈ 90.1 µg/mL).

On to `CC(=O)N1CCC[C@]12CC=CCCCC1(CCCC=CCCCCCC[C@@](C)(C(=O)N[C@@H](Cc3ccccc3)C(=O)N[C@@H](Cc3csc4ccccc34)C(=O)N[C@@H](CCC(N)=O)C(N)=O)NC(=O)[C@H](C)NC(=O)[C@H](Cc3cccc(C(F)(F)F)c3)NC(=O)[C@H](C)NC(=O)[C@H](C)NC(=O)[C@H](CC(=O)O)NC(=O)[C@H](CC(=O)O)NC1=O)NC(=O)[C@H](C)NC(=O)[C@H](CC(=O)O)NC2=O` (stereo partly drawn) [I-375, Ac-PL3-Asp-Ala-B5-Asp-Asp-Ala-Ala-3F3MeF-Ala-S8-Phe-BztA-Gln-NH2], for which the IC50 in data set [1] (setting [3]) is 3.01 µM. In “CHI Log D procedure”, the “CHI Log D” value is listed as 2.242. Besides, the “Solubility” value in the data set “Solubility in PBS” turned out to be 49 µM (≈ 90.1 µg/mL).

Consider `CC(=O)N1CCC[C@]12CC=CCCCC1(CCCC=CCCCCCC[C@@](C)(C(=O)N[C@@H](Cc3ccccc3)C(=O)N[C@@H](Cc3csc4ccccc34)C(=O)N[C@@H](CCC(N)=O)C(N)=O)NC(=O)[C@H](C)NC(=O)[C@H](Cc3cccc(C(F)(F)F)c3)NC(=O)[C@H](C)NC(=O)[C@H](C)NC(=O)[C@H](CC(=O)O)NC(=O)[C@H](CC(=O)O)NC1=O)NC(=O)[C@H](C)NC(=O)[C@H](CC(=O)O)NC2=O` (stereo partly drawn) [I-376, Ac-PL3-Asp-Ala-B5-Asp-Asp-Ala-Ala-3F3MeF-Ala-S8-Phe-BztA-Gln-NH2], for which the IC50 in data set [1] (setting [2]) and in data set [1] (setting [3]) was 1.32 µM each time. Moreover, the “CHI Log D” value in the data set “CHI Log D procedure” turned out to be 2.296. For the same compound, the “Solubility” value in the data set “Solubility in PBS” turned out to be 48 µM (≈ 88.2 µg/mL).

With `CC(=O)N1CCC[C@]12CC=CCCCC1(CCCC=CCCCCCC[C@@](C)(C(=O)N[C@@H](Cc3ccccc3)C(=O)N[C@@H](Cc3csc4ccccc34)C(=O)N[C@@H](CCC(N)=O)C(N)=O)NC(=O)[C@H](C)NC(=O)[C@H](Cc3cccc(C(F)(F)F)c3)NC(=O)[C@H](C)NC(=O)[C@H](C)NC(=O)[C@H](CC(=O)O)NC(=O)[C@H](CC(=O)O)NC1=O)NC(=O)[C@H](C)NC(=O)[C@H](CC(=O)O)NC2=O` (stereo partly drawn) [I-377, Ac-PL3-Asp-Ala-B5-Asp-Asp-Ala-Ala-3F3MeF-Ala-S8-Phe-BztA-Gln-NH2], in data set [1] (setting [3]), the IC50 worked out at 1.32 µM. The “CHI Log D” value in the data set “CHI Log D procedure” turned out to be 2.296. Further, the “Solubility” value in the data set “Solubility in PBS” was 48 µM (≈ 88.2 µg/mL).

As for `CC(=O)N1CCC[C@]12CC=CCCCC1(CCCC=CCCCCCC[C@@](C)(C(=O)N[C@@H](Cc3ccccc3)C(=O)N[C@@H](Cc3csc4ccccc34)C(=O)N[C@@H](CCC(N)=O)C(N)=O)NC(=O)[C@H](CCC(N)=O)NC(=O)[C@H](Cc3cccc(C(F)(F)F)c3)NC(=O)[C@H](C)NC(=O)[C@H](C)NC(=O)[C@H](CC(=O)O)NC(=O)[C@H](CC(=O)O)NC1=O)NC(=O)[C@H](C)NC(=O)[C@H](CC(=O)O)NC2=O` (stereo partly drawn) [I-378, Ac-PL3-Asp-Ala-B5-Asp-Asp-Ala-Ala-3F3MeF-Gln-S8-Phe-BztA-Gln-NH2], the IC50 in data set [1] (setting [2]) and in data set [1] (setting [3]) was 1.34 µM in each case. Also, the “CHI Log D” value in “CHI Log D procedure” worked out at 2.143. For the same compound, the “Solubility” value in the data set “Solubility in PBS” was found to be 50 µM (≈ 94.8 µg/mL).

Regarding `CC(=O)N1CCC[C@]12CC=CCCCC1(CCCC=CCCCCCC[C@@](C)(C(=O)N[C@@H](Cc3ccccc3)C(=O)N[C@@H](Cc3csc4ccccc34)C(=O)N[C@@H](CCC(N)=O)C(N)=O)NC(=O)[C@H](CCC(N)=O)NC(=O)[C@H](Cc3cccc(C(F)(F)F)c3)NC(=O)[C@H](C)NC(=O)[C@H](C)NC(=O)[C@H](CC(=O)O)NC(=O)[C@H](CC(=O)O)NC1=O)NC(=O)[C@H](C)NC(=O)[C@H](CC(=O)O)NC2=O` (stereo partly drawn) [I-379, Ac-PL3-Asp-Ala-B5-Asp-Asp-Ala-Ala-3F3MeF-Gln-S8-Phe-BztA-Gln-NH2], in data set [1] (setting [3]), the IC50 was found to be 1.34 µM. Moreover, the “CHI Log D” value in the data set “CHI Log D procedure” was 2.143. For the same compound, the “Solubility” value in the data set “Solubility in PBS” was determined as 50 µM (≈ 94.8 µg/mL).

Consider `CC(=O)N1CCC[C@]12CC=CCCCC1(CCCC=CCCCCCC[C@@](C)(C(=O)N[C@@H](Cc3ccccc3)C(=O)N[C@@H](Cc3csc4ccccc34)C(=O)N[C@@H](CCC(N)=O)C(N)=O)NC(=O)[C@H](CCC(N)=O)NC(=O)[C@H](Cc3cccc(C(F)(F)F)c3)NC(=O)[C@H](C)NC(=O)[C@H](C)NC(=O)[C@H](CC(=O)O)NC(=O)[C@H](CC(=O)O)NC1=O)NC(=O)[C@H](C)NC(=O)[C@H](CC(=O)O)NC2=O` (stereo partly drawn) [I-380, Ac-PL3-Asp-Ala-B5-Asp-Asp-Ala-Ala-3F3MeF-Gln-S8-Phe-BztA-Gln-NH2], for which the IC50 in data set [1] (setting [2]) and in data set [1] (setting [3]) was 0.552 µM each time. Also, in “CHI Log D procedure”, the “CHI Log D” value is 2.19. For the same compound, the “Solubility” value in the data set “Solubility in PBS” was found to be 49 µM (≈ 92.9 µg/mL).

For `CC(=O)N1CCC[C@]12CC=CCCCC1(CCCC=CCCCCCC[C@@](C)(C(=O)N[C@@H](Cc3cccc(F)c3)C(=O)N[C@@H](Cc3csc4ccccc34)C(=O)N[C@@H](CCC(N)=O)C(N)=O)NC(=O)[C@H](C(C)C)NC(=O)[C@H](Cc3ccccc3)NC(=O)[C@H](C)NC(=O)[C@H](C)NC(=O)[C@H](CC(N)=O)NC(=O)[C@H](CC(=O)O)NC1=O)NC(=O)[C@H](C)NC(=O)[C@H](CC(=O)O)NC2=O` (stereo partly drawn) [I-381, Ac-PL3-Asp-Ala-B5-Asp-Asn-Ala-Ala-Phe-Val-S8-3FF-BztA-Gln-NH2], the IC50 in data set [1] (setting [2]) and in data set [1] (setting [3]) was 3.65 µM in each case. For the same compound, the “CHI Log D” value in “CHI Log D procedure” turned out to be 2.636. Besides, the “Solubility” value in “Solubility in PBS” came out at 10 µM (≈ 18.2 µg/mL).
